Test results reported in US20080138437A1, “Antitumor Agent” (priority 2004, published 2008).
Counter-ions that a name gives are not always drawn. Like-named read-outs stand apart in the source and are kept apart here.

Experiments:
C57BL/6 male mouse = details: for deaths versus administered animals: one-time
in vivo = details: male, C57BL/6, mouse
[1] = tested on: 15 types of human cancer cells; assay: Cell growth inhibition test, MTT, average GI 50; assay type: cell-based; details: average of 15 human cancer cell types, 48 hours exposure
Description: Appropriate amounts of each of the human cancer cells suspended in 5% fetal bovine serum-supplemented medium were plated into a 96-well plate, and allowed to adhere to the wells in a 37° C. CO2 incubator overnight.
These cancer cells were exposed to each anticancer agent for 48 hours. Cell growth was assayed by MTT. Absorbance of the control well (C) and the test well (T) was measured at 550 nm.
The absorbance of the test well immediately after adding the drug (TO) was also measured. Using these measured values, GI 50 of each drug was calculated, and the drug concentration at that time was obtained. For comparison, a similar test was performed for each of the anticancer agents (Comparative Tests 4-1 to 4-7).

A549 lung cancer cells = assay: Antitumor test, transplanted tumor in nude mice; assay type: in vivo, human; details: control, drug without hydroxyapatite adsorption
Description: (§1) (Experimental Test 5-1 to 5-5).
(§2) Female nude mice (7 weeks old, 16 to 22 g) with a BALB/c genetic background were used for the tests. Human cancer cells used for the tests were GCIY stomach cancer cells, HCT-15 colon cancer cells, A549 lung cancer cells, and OVCAR-3 ovarian cancer cells. Human cancer cells were subcutaneously transplanted into nude mice, tumor lumps were formed, and these carcinomas were used for the tests.
(§3) Aseptically collected tumors were sliced into tumors of 3×3×3 mm, and then subcutaneously transplanted into a new nude mouse. When the tumors reached a volume of 100 to 300 mm^3, the animals were arbitrarily divided into groups of six (Day 0). […] Intravascular administration was the administration route for all.
(§4) After administration, between Days 24 to 31, the length (L) and width (W) of the tumor lump of the animal were measured twice a week, and the tumor volume (TV) was calculated according to the following formula: TV=(L×W^2)/2. Antitumor effect was determined at Day 14. The relative tumor volume (RTV) was obtained by the following formula: RTV=TV14/TV0, using values of the tumor volume at Day 0 and Day 14 (referred to as TV0 and TV14). Antitumor effect was evaluated as the tumor regression rate at Day 14 (T/C%). Herein, T/C %=100×(average RTV of the treated group)/(RTV of the control group).
(§5) As a control, each drug was tested without hydroxyapatite adsorption (Comparative Tests 5-10 to 5-14).

[2] = tested on: HCT-15 colon cancer cells; assay: Antitumor test, transplanted tumor in nude mice; assay type: in vivo, human; details: control, drug without hydroxyapatite adsorption
Description: as §1, §2, §3, §4, §5

[3] = tested on: GCIY stomach cancer cells; assay: Antitumor test, transplanted tumor in nude mice; assay type: in vivo, human; details: control, drug without hydroxyapatite adsorption
Description: as §1, §2, §3, §4, §5

[4] = tested on: OVCAR-3 ovarian cancer cells; assay: Antitumor test, transplanted tumor in nude mice; assay type: in vivo, human; details: control, drug without hydroxyapatite adsorption
Description: as §1, §2, §3, §4, §5

[5] = 200 mg/kg intravascular, 14 days observation
[6] = 250 mg/kg intravascular, 14 days observation
[7] = 300 mg/kg intravascular, 14 days observation
[8] = 350 mg/kg intravascular, 14 days observation
[9] = 400 mg/kg intravascular, 14 days observation
[10] = intravascular, one-time administration, 14 days observation
[11] = 100 mg/kg intravascular, 14 days observation
[12] = 400 mg/kg oral, antitumor agent alone, 14 days observation
[13] = 600 mg/kg oral, antitumor agent alone, 14 days observation
[14] = 800 mg/kg oral, antitumor agent alone, 14 days observation
[15] = 1000 mg/kg oral, antitumor agent alone, 14 days observation
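Wherever LD50 is given: mice given a single dose and followed for 14 days, with deaths tallied, LD50 derived from the doses given and the resulting death counts.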
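Wherever deaths versus administered animals is given: mice given a single dose and followed for 14 days, with deaths tallied, LD50 derived from the doses given and the resulting death counts.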

Bleomycin hydrochloride
deaths versus administered animals (C57BL/6 male mouse; [5]): 0/5 | deaths versus administered animals (C57BL/6 male mouse; [6]): 1/6 | deaths versus administered animals (C57BL/6 male mouse; [7]): 3/7 | deaths versus administered animals (C57BL/6 male mouse; [8]): 4/6 | deaths versus administered animals (C57BL/6 male mouse; [9]): 4/5 | deaths versus administered animals (C57BL/6 male mouse; 500 mg/kg intravascular, 14 days observation): 5/6 | deaths versus administered animals (C57BL/6 male mouse; 600 mg/kg intravascular, 14 days observation): 6/6 | LD50 (C57BL/6 male mouse; [10]): 322.7 mg/kg

CN(C)CCOc1ccc(/C(=C(/CCCl)c2ccccc2)c2ccccc2)cc1 [Toremifene citrate]
LD50 (in vivo; po): 360 mg/kg

O=c1[nH]c(=O)n(C2CCCO2)cc1F (stereo not drawn) [Tegafur]
LD50 (in vivo; ip): 750 mg/kg

O=c1[nH]cc(F)c(=O)[nH]1 [Fluorouracil]
LD50 (in vivo): 244 mg/kg | GI50 [1]: 36.8 µM | Regression rate of transplanted cancer (T/C %) at Day 14 (A549 lung cancer cells): 117% | Regression rate of transplanted cancer (T/C %) at Day 14 [2]: 59% | Regression rate of transplanted cancer (T/C %) at Day 14 [3]: 69% | Regression rate of transplanted cancer (T/C %) at Day 14 [4]: 74% | deaths versus administered animals (C57BL/6 male mouse; 50 mg/kg intravascular, 14 days observation): 0/5 | deaths versus administered animals (C57BL/6 male mouse; [11]): 1/5 | deaths versus administered animals (C57BL/6 male mouse; 150 mg/kg intravascular, 14 days observation): 1/5 | deaths versus administered animals (C57BL/6 male mouse; [5]): 2/5 | deaths versus administered animals (C57BL/6 male mouse; [6]): 2/6 | deaths versus administered animals (C57BL/6 male mouse; [7]): 3/5 | deaths versus administered animals (C57BL/6 male mouse; [8]): 5/6 | deaths versus administered animals (C57BL/6 male mouse; [9]): 6/6

CC(C)C(=O)Nc1ccc([N+](=O)[O-])c(C(F)(F)F)c1 [Flutamide]
LD50 (in vivo; po): 772 mg/kg

NC(=O)NO [Hydroxycarbamide]
LD50 (in vivo; po): 2350 mg/kg

CN(C)/N=N/c1[nH]cnc1C(N)=O [Dacarbazine]
LD50 (in vivo): 452 mg/kg

CN(Cc1cnc2nc(N)nc(N)c2n1)c1ccc(C(=O)N[C@@H](CCC(=O)O)C(=O)O)cc1 [Methotrexate]
LD50 (in vivo; ip): 74 mg/kg

CC(C)C[C@H](NC(=O)[C@@H](COC(C)(C)C)NC(=O)[C@H](Cc1ccc(O)cc1)NC(=O)[C@H](CO)NC(=O)[C@H](Cc1c[nH]c2ccccc12)NC(=O)[C@H](Cc1cnc[nH]1)NC(=O)[C@@H]1CCC(=O)N1)C(=O)N[C@@H](CCCNC(=N)N)C(=O)N1CCC[C@H]1C(=O)NNC(N)=O [Goserelin acetate]
LD50 (in vivo; sc): 36 mg/kg

S=P(N1CC1)(N1CC1)N1CC1 [Thiotepa]
LD50 (in vivo): 16.1 mg/kg

N[C@@H](Cc1ccc(N(CCCl)CCCl)cc1)C(=O)O [Melphalan]
LD50 (in vivo): 21 mg/kg

CC1=C(/C=C/C(C)=C/C=C/C(C)=C/C(=O)O)C(C)(C)CCC1 [Tretinoin]
LD50 (in vivo; po): 549 mg/kg

O=P1(N(CCCl)CCCl)NCCCO1 (stereo not drawn) [Cyclophosphamide]
LD50 (in vivo): 140 mg/kg | Regression rate of transplanted cancer (T/C %) at Day 14 (A549 lung cancer cells): 86% | Regression rate of transplanted cancer (T/C %) at Day 14 [2]: 52% | Regression rate of transplanted cancer (T/C %) at Day 14 [3]: 78% | Regression rate of transplanted cancer (T/C %) at Day 14 [4]: 71%

CC(=O)O[C@H]1C(=O)[C@@]2(C)[C@H]([C@H](OC(=O)c3ccccc3)[C@]3(O)C[C@H](OC(=O)[C@H](O)[C@@H](NC(=O)c4ccccc4)c4ccccc4)C(C)=C1C3(C)C)[C@]1(OC(C)=O)CO[C@@H]1C[C@@H]2O [Paclitaxel]
LD50 (in vivo): 12 mg/kg

O=P1(NCCCl)OCCCN1CCCl (stereo not drawn) [Ifosfamide]
LD50 (in vivo): 325 mg/kg | LD50 (in vivo; po): 996 mg/kg

C[C@]12CC[C@@H]3c4ccc(OC(=O)N(CCCl)CCCl)cc4CC[C@H]3[C@@H]1CC[C@@H]2OP(=O)(O)O [Estramustine sodium phosphate]
LD50 (in vivo; po): 380 mg/kg

CCC1=C[C@@H]2CN(C1)Cc1c([nH]c3ccccc13)[C@@](C(=O)OC)(c1cc3c(cc1OC)N(C)[C@H]1[C@@](O)(C(=O)OC)[C@H](OC(C)=O)[C@]4(CC)C=CCN5CC[C@]31[C@@H]54)C2 [Vinorelbine tartrate]
LD50 (in vivo): 2.3 mg/kg

CC[C@]1(O)C[C@@H]2CN(CCc3c([nH]c4ccccc34)[C@@](C(=O)OC)(c3cc4c(cc3OC)N(C)[C@H]3[C@@](O)(C(=O)OC)[C@H](OC(C)=O)[C@]5(CC)C=CCN6CC[C@]43[C@@H]65)C2)C1 [Vinblastine sulfate]
LD50 (in vivo): 5.6 mg/kg | LD50 (in vivo; po): 427 mg/kg

CC(C)COC(=O)OCN1C(=O)CN(CCN2CC(=O)N(COC(=O)OCC(C)C)C(=O)C2)CC1=O [Sobuzoxane]
deaths versus administered animals (C57BL/6 male mouse; 200 mg/kg oral, antitumor agent alone, 14 days observation): 0/5 | deaths versus administered animals (C57BL/6 male mouse; [12]): 1/5 | deaths versus administered animals (C57BL/6 male mouse; [13]): 1/6 | deaths versus administered animals (C57BL/6 male mouse; [14]): 2/5 | deaths versus administered animals (C57BL/6 male mouse; [15]): 3/5 | deaths versus administered animals (C57BL/6 male mouse; 1200 mg/kg oral, antitumor agent alone, 14 days observation): 4/5 | deaths versus administered animals (C57BL/6 male mouse; 1400 mg/kg oral, antitumor agent alone, 14 days observation): 6/6

CS(=O)(=O)OCCCCOS(C)(=O)=O [Busulphan]
LD50 at 14 days (in vivo; po): 40 mg/kg

COC(COC(N)=O)C1=C(N2CC2)C(=O)C(C)=C(N2CC2)C1=O (stereo not drawn) [Carboquone]
LD50 (in vivo): 5.8 mg/kg

Sc1ncnc2nc[nH]c12 [Mercaptopurine]
LD50 (in vivo; po): 1090 mg/kg

N.N.[Cl][Pt][Cl] [Cisplatin]
GI50 [1]: 7.21 µM | Regression rate of transplanted cancer (T/C %) at Day 14 (A549 lung cancer cells): 79% | Regression rate of transplanted cancer (T/C %) at Day 14 [2]: 53% | Regression rate of transplanted cancer (T/C %) at Day 14 [3]: 67% | Regression rate of transplanted cancer (T/C %) at Day 14 [4]: 67% | deaths versus administered animals (C57BL/6 male mouse; 5.0 mg/kg intravascular, 14 days observation): 1/8 | deaths versus administered animals (C57BL/6 male mouse; 7.5 mg/kg intravascular, 14 days observation): 2/7 | deaths versus administered animals (C57BL/6 male mouse; 10 mg/kg intravascular, 14 days observation): 5/8 | deaths versus administered animals (C57BL/6 male mouse; 12.5 mg/kg intravascular, 14 days observation): 6/8 | deaths versus administered animals (C57BL/6 male mouse; 15 mg/kg intravascular, 14 days observation): 5/6 | deaths versus administered animals (C57BL/6 male mouse; 17.5 mg/kg intravascular, 14 days observation): 6/6

C[C@H]1O[C@@H](n2cc(F)c(=O)[nH]c2=O)[C@H](O)[C@@H]1O [Doxifluridine]
LD50 (in vivo; po): 1200 mg/kg

CO[C@@]12[C@H](COC(N)=O)C3=C(C(=O)C(C)=C(N)C3=O)N1C[C@@H]1N[C@@H]12 [Mitomycin C]
GI50 [1]: 1.43 µM

CCC1=C[C@@H]2CN(C1)Cc1c([nH]c3ccccc13)[C@@](C(=O)OC)(c1cc3c(cc1OC)N(C)[C@H]1[C@@](O)(C(=O)OC)[C@H](OC(C)=O)[C@]4(CC)C=CCN5CC[C@]31[C@@H]54)C2 [Vinorelbine]
LD50 (in vivo; ip): 29 mg/kg

N.N.O=C([O-])C1(C(=O)[O-])CCC1.[Pt+2] [Carboplatin]
GI50 [1]: 75.7 µM | deaths versus administered animals (C57BL/6 male mouse; 70 mg/kg intravascular, 14 days observation): 0/6 | deaths versus administered animals (C57BL/6 male mouse; 80 mg/kg intravascular, 14 days observation): 1/7 | deaths versus administered animals (C57BL/6 male mouse; 90 mg/kg intravascular, 14 days observation): 3/6 | deaths versus administered animals (C57BL/6 male mouse; [11]): 5/8 | deaths versus administered animals (C57BL/6 male mouse; 110 mg/kg intravascular, 14 days observation): 7/8 | deaths versus administered animals (C57BL/6 male mouse; 120 mg/kg intravascular, 14 days observation): 7/7 | LD50 (C57BL/6 male mouse; [10]): 93.0 mg/kg | LD50 (C57BL/6 male mouse; oral, antitumor agent alone (comparison), one-time administration, 14 days observation): 350 mg/kg

CCCCCCCCCCCCCCCCCCOP(=O)([O-])OC[C@H]1O[C@@H](n2ccc(N)nc2=O)[C@@H](O)[C@@H]1O.[Na+] [Cytarabine ocfosfate]
deaths versus administered animals (C57BL/6 male mouse; 250 mg/kg oral, antitumor agent alone, 14 days observation): 0/5 | deaths versus administered animals (C57BL/6 male mouse; 300 mg/kg oral, antitumor agent alone, 14 days observation): 1/5 | deaths versus administered animals (C57BL/6 male mouse; [12]): 2/5 | deaths versus administered animals (C57BL/6 male mouse; 500 mg/kg oral, antitumor agent alone, 14 days observation): 2/5 | deaths versus administered animals (C57BL/6 male mouse; [13]): 3/5 | deaths versus administered animals (C57BL/6 male mouse; 700 mg/kg oral, antitumor agent alone, 14 days observation): 3/5 | deaths versus administered animals (C57BL/6 male mouse; [14]): 4/5 | deaths versus administered animals (C57BL/6 male mouse; [15]): 5/5 | LD50 (C57BL/6 male mouse; mouse, in vivo, po): 524 mg/kg

B1: Neocarzinostatin (protein, UniProt P0A3R9 35-147, looked up)
Neocarzinostatin: AAPTATVTPSSGLSDGTVVKVAGAGLQAGTAYDVGQCAWVDTGVLACNPADFSSVTADANGSASTSLTVRRSFEGFLFDGTRWGTVDCTTAACQVGLSDAAGNGPEGVAISFN
modifications: enediyne chromophore
LD50 (C57BL/6 male mouse; intraperitoneal, one-time administration, 14 days observation): 1050 mg/kg
